The values below come from PubChem BioAssay (NCI).

Test systems include SF-268 CNS; SW-620 colon; HCT-116 colon; SF-539 CNS; HCC-2998 colon; LOX IMVI melanoma; HOP-92 NSCLC; OVCAR-8 ovarian.
Holding throughout (assay): inhibition of tumour cell growth, NCI panel, 48 h

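A five-concentration, 48-hour dose response in 96-well plates underlies each endpoint, interpolated linearly between surrounding concentrations. At the GI50, growth is halved. At the TGI there is no net growth.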

As for `CCCCCCCCCCCCNC(=S)OC`, the TGI with SF-268 CNS came to 32.8 µM; in the assay with SW-620 colon, 30.2 µM; in the assay with HCT-116 colon it was 29.3 µM; in the assay with SF-539 CNS, 30.9 µM; in the assay on HCC-2998 colon, 32.9 µM; in the assay with LOX IMVI melanoma, 28.7 µM. Further, the results for the TGI in the assay on HOP-92 NSCLC and in the assay with OVCAR-8 ovarian were 20.1 µM and 29.7 µM, respectively.
On to `N#CCCC[Si]12OCCN(CCO1)CCO2`, for which the TGI in the assay with SF-268 CNS, in the assay with SW-620 colon, in the assay with HCT-116 colon, in the assay on SF-539 CNS, with HCC-2998 colon and with HOP-92 NSCLC was above 100 µM each time. This molecule returned a TGI in the assay on OVCAR-8 ovarian above 100 µM.
As for `S=P1(Oc2ccccc2)NNP2(=NP(N3CC3)(N3CC3)=NP(N3CC3)(N3CC3)=N2)NN1` (configuration not stated), the TGI in the assay with SF-268 CNS, with SW-620 colon, with HCT-116 colon, in the assay with SF-539 CNS, in the assay on HCC-2998 colon and in the assay on LOX IMVI melanoma was above 100 µM each time. For the same molecule, in the assay on OVCAR-8 ovarian, the TGI was above 100 µM.
As for `O=C1C(C(Nc2ccccc2)c2ccccc2)=C([O-])c2ccccc21.O=C1C(C(Nc2ccccc2)c2ccccc2)=C([O-])c2ccccc21.[Cu+2]` (configuration not stated), the GI50 in the assay on SW-620 colon is 42.6 µM; in the assay on HCT-116 colon, 12 µM; with SF-539 CNS it was 30.6 µM; in the assay with LOX IMVI melanoma, 46.6 µM; in the assay with HOP-92 NSCLC it was 40.9 µM; in the assay with OVCAR-8 ovarian it was 41.9 µM. For the same molecule, the TGI in the assay on SW-620 colon, with HCT-116 colon, with SF-539 CNS, with LOX IMVI melanoma, in the assay with HOP-92 NSCLC and in the assay on OVCAR-8 ovarian was above 100 µM each time.
As for `CC(=O)OCCOCNC(=S)N/N=C/c1ccc([N+](=O)[O-])o1`, the TGI in the assay with SF-268 CNS, in the assay on SW-620 colon, in the assay with HCT-116 colon, in the assay on SF-539 CNS, in the assay on HCC-2998 colon and with LOX IMVI melanoma was above 100 µM in each case. In the assay with OVCAR-8 ovarian, this molecule registered a TGI above 100 µM.
For the molecule `COCCOCOC(CCCCO)c1cc(C)c(O[Si](C)(C)C(C)(C)C)c(C)c1` (configuration not stated), the TGI worked out at 20.4 µM with SF-268 CNS; 21.1 µM with SW-620 colon; 26 µM in the assay on SF-539 CNS; 19.8 µM in the assay with HCC-2998 colon; 18.7 µM with LOX IMVI melanoma; 18.7 µM in the assay with OVCAR-8 ovarian.
Take `CC1(C)CC(c2c[nH]c3ccccc23)=CC2=Nc3ccccc3C21O` (configuration not stated): the TGI with SF-268 CNS was above 100 µM; in the assay on SW-620 colon, above 100 µM; in the assay with HCT-116 colon, above 100 µM; in the assay on SF-539 CNS, above 100 µM; in the assay on LOX IMVI melanoma, above 100 µM; in the assay on HOP-92 NSCLC, 64.3 µM. The TGI with OVCAR-8 ovarian was above 100 µM.
On to `N#CC(C(=O)CCC(=O)Nc1ccc(Cl)c(Cl)c1)c1ccccc1` (configuration not stated), for which the TGI in the assay with SF-268 CNS, in the assay with SW-620 colon, with HCT-116 colon, with SF-539 CNS, in the assay with HCC-2998 colon and in the assay with HOP-92 NSCLC was above 100 µM each time. This molecule had a TGI in the assay on OVCAR-8 ovarian above 100 µM.
On to `CN(C)C(=S)/N=c1\ssc(=S)n1C1CCCCC1`, for which the TGI with SF-268 CNS was above 100 µM; with SW-620 colon, 28.4 µM; with HCT-116 colon it was 32.3 µM; in the assay on SF-539 CNS it was 48.3 µM; in the assay with HCC-2998 colon, above 100 µM; with HOP-92 NSCLC it was 96.6 µM. The TGI in the assay with OVCAR-8 ovarian was found to be 53.9 µM.
Regarding `CN1C(=O)C(=O)N2c3ccc(Cl)cc3C3(c4ccccc4)N=CC12O3` (configuration not stated), the TGI in the assay on SF-268 CNS amounted to 25.6 µM; in the assay on SW-620 colon, 14.5 µM; in the assay with HCT-116 colon, 13.2 µM; in the assay on SF-539 CNS, 14.6 µM; in the assay on HCC-2998 colon, 28.4 µM; in the assay with HOP-92 NSCLC it was 6.63 µM. Further, the TGI in the assay on OVCAR-8 ovarian amounted to 12.8 µM.
As for `[O-][Cl+3]([O-])([O-])[O-].[O]=[Ru]=[O].c1ccc(-c2ccccn2)nc1.c1ccc(-c2ccccn2)nc1`, the GI50 was 65.7 µM in the assay with SF-268 CNS; above 100 µM in the assay with SW-620 colon; above 100 µM in the assay with SF-539 CNS; 88.6 µM with HCC-2998 colon; 56.8 µM with LOX IMVI melanoma; above 100 µM in the assay on HOP-92 NSCLC. Further, the GI50 with OVCAR-8 ovarian is above 100 µM. Also, the TGI in the assay with SF-268 CNS, in the assay with SW-620 colon, in the assay with SF-539 CNS, in the assay on HCC-2998 colon, in the assay with LOX IMVI melanoma and in the assay on HOP-92 NSCLC was above 100 µM throughout. The molecule further gave a TGI in the assay with OVCAR-8 ovarian above 100 µM.
For `COc1c(CC(C)=O)ccc2c1C(=O)c1ccc(C=O)c(OC(C)=O)c1C2=O`, the TGI worked out at 33.7 µM in the assay with SW-620 colon; 24.9 µM with HCT-116 colon; 20.8 µM in the assay with SF-539 CNS; 24.5 µM in the assay on HCC-2998 colon; 40.3 µM in the assay on LOX IMVI melanoma; 44.1 µM with HOP-92 NSCLC. Besides, in the assay with OVCAR-8 ovarian, the TGI worked out at 97.3 µM.
Regarding `CN(C)C=Nc1nc(=O)n(C2CCC(CO)O2)cc1F` (configuration not stated), the TGI in the assay on SF-268 CNS, in the assay on SW-620 colon, with HCC-2998 colon, in the assay on LOX IMVI melanoma, with HOP-92 NSCLC and with OVCAR-8 ovarian was above 100 µM throughout.
